In PMC5142287, “Weight control interventions improve therapeutic efficacy of dacarbazine in melanoma by reversing obesity-induced drug resistance” (Cancer & Metabolism, 2016):

What was measured:
[1] = Obesity-associated factors in B16F10-isografted HFD C57BL/6J mice (body weight, blood glucose, serum lipids, ELISA); type: in vivo; conditions: end of experiment, mean ± SD
From the text: C57BL/6J mice were procured from Experimental Animal Facility (EAF) at National Centre for Cell Science (NCCS), Pune, India. High fat diet (24% fat) was purchased from Provimi Animal Nutrition Pvt. Ltd., Bangalore, India, and normal diet (5% fat) was obtained from Amrut Laboratory, Pune, India. The compositions of diets are provided in supplementary data (Additional file 1: Table S1). Diet-induced obesity was developed in the mice by feeding them with high fat diet as described previously. Male C57BL/6J mice (6–8 weeks old) were divided into normal diet (ND) and high fat diet (HFD) group. ND group was fed with normal diet while HFD group was fed with high fat diet supplemented with ground nut and dried coconut for 6 months. Body weight and serum chemistry profile were measured monthly to verify obesity-associated changes. Water and food were provided ad libitum to all the mice. All animal experiments were carried out as per the requirement and guidelines of the Committee for the Purpose of Control and Supervision of Experiments on Animals (CPCSEA), Government of India, and after obtaining permission of the Institutional Animal Ethics Committee (IAEC).
(§1) Blood glucose levels and serum lipids were estimated as described previously. Insulin, leptin, and adiponectin levels in the serum were estimated by mouse-specific respective ELISA kits as described. Resistin, IL-6, and TNF-α levels in the serum were detected by indirect ELISA as described previously.
(§2) To study the impact of diet-induced obesity on the outcome of DTIC therapy in melanoma, we treated B16F10 melanoma isografted obese mice with DTIC purchased from Sigma, USA (80 mg/kg intraperitoneally for five consecutive days as described previously). In addition, to look into the impact of weight loss interventions on the outcome of DTIC therapy in obese mice, mice were administered with orlistat (an antiobesity drug known to inhibit gastrointestinal lipases) and/or shifted from high fat to normal diet followed by DTIC treatment. The detailed experimental plan is illustrated in Fig. 1a. Briefly, obese mice were administered orally with orlistat (10 mg/kg on every alternate day) purchased from Enzo Life Sciences, NY, USA, and/or shifted from high fat diet to normal diet. HFD C57BL/6J mice treated with vehicle or orlistat were termed as HFD-HFD Ctrl and HFD-HFD Orli (N = 11 per each group), respectively, whereas HFD C57BL/6J mice shifted to normal diet and treated with vehicle or orlistat were grouped as HFD-ND Ctrl and HFD-ND Orli (N = 11 per each group), respectively. After 15 days, these mice were injected subcutaneously (s.c.) with B16F10 cells (2 × 10^5) in 100 μl of PBS and monitored daily for the presence of palpable tumors and dimensions were recorded on alternate days. […] Tumor volume was calculated using the formula 0.52 × length × width^2 and was followed up throughout the study.

[2] = test system: B16F10 melanoma; assay: B16F10 melanoma isograft in ND C57BL/6J mice: tumor growth and survival
Procedure: Melanoma cells were injected and orlistat treatment was continued. Following tumor formation, all groups of mice were treated with vehicle (acidified water) or DTIC, and tumor volume was followed up in these mice throughout the study as mentioned above. […] At the end of the experiment, mice were sacrificed, tumors were excised, and the samples were immediately preserved at −80 °C until further use. Five mice from each group were followed up for survival studies as mentioned above.

[3] = test system: 3T3-L1 adipocytes; set-up: method as in PMID 10840932; conditions: cited from earlier work
[4] = Obesity-associated factors in B16F10-isografted ND C57BL/6J mice; type: in vivo; conditions: end of experiment
From the text: as §1

[5] = test system: B16F10 melanoma; assay: B16F10 melanoma isograft in HFD (obese) C57BL/6J mice: tumor growth and survival; type: in vivo; conditions: HFD mice, vs untreated counterparts
Procedure: as §2

Question: Which Body weight ([1]; HFD-HFD (continued on HFD), orlistat 10 mg/kg oral alternate days, DTIC 80 mg/kg i.p. 5 days) does the source give for CCCCCCCCCCC[C@@H](C[C@@H]1OC(=O)[C@H]1CCCCCC)OC(=O)[C@H](CC(C)C)NC=O [orlistat] here?
Answer: Its Body weight is 26.16 ± 0.71 (p < 0.0001) g.

Question: And the Blood glucose ([1]; HFD-HFD)?
Answer: Its Blood glucose is 146.3 ± 5.99 (p < 0.0001) mg/dl.

Question: What about the “Serum IL-6” value ([1]; HFD-HFD) of the same molecule?
Answer: The value was 35.45 ± 2.88 (p < 0.0001) pg/ml.

Question: What about the “Serum LDLc” value ([1]; HFD-HFD) of the same molecule?
Answer: The value was 66.69 ± 3.42 (p < 0.0001) mg/dl.

Question: And the “Serum TG” value ([1]; HFD-HFD)?
Answer: The value was 66.03 ± 3.39 (p < 0.0001) mg/dl.

Question: What about the “Serum TNF-α” value ([1]; HFD-HFD) of the same molecule?
Answer: Its value is 13.78 ± 1.07 (p < 0.0001) pg/ml.

Question: What about the Serum adiponectin ([1]; HFD-HFD) of the same molecule?
Answer: Its Serum adiponectin is 8204 ± 593 (p < 0.0001) ng/ml.

Question: And the Serum cholesterol ([1]; HFD-HFD)?
Answer: Its Serum cholesterol is 95.75 ± 4.91 (p < 0.0001) mg/dl.

Question: What about the “Serum free fatty acids” value ([1]; HFD-HFD) of the same molecule?
Answer: The value was 1.74 ± 0.09 (p < 0.0001) mM/l.

Question: What about the Serum insulin ([1]; HFD-HFD) of the same molecule?
Answer: Its Serum insulin is 0.269 ± 0.01 (p < 0.0001) μg/l.

Question: And the Serum leptin ([1]; HFD-HFD)?
Answer: The Serum leptin was 33.74 ± 2.47 (p < 0.0001) ng/ml.

Question: What about the Serum resistin ([1]; HFD-HFD) of the same molecule?
Answer: The Serum resistin was 1.66 ± 0.08 (p < 0.0001) ng/ml.

Question: And the Body weight ([1]; HFD-ND (shifted from HFD to normal diet))?
Answer: The Body weight was 23.1 ± 1.02 (p < 0.0001) g.

Question: And the Blood glucose ([1]; HFD-ND)?
Answer: Its Blood glucose is 128.83 ± 6.24 (p < 0.0001) mg/dl.

Question: And the “Serum IL-6” value ([1]; HFD-ND)?
Answer: Its value is 29.25 ± 2.12 (p < 0.0001) pg/ml.

Question: What about the “Serum LDLc” value ([1]; HFD-ND) of the same molecule?
Answer: The value was 63.31 ± 3.13 (p < 0.0001) mg/dl.

Question: What about the “Serum TG” value ([1]; HFD-ND) of the same molecule?
Answer: The value was 60.53 ± 3.15 (p < 0.0001) mg/dl.

Question: And the “Serum TNF-α” value ([1]; HFD-ND)?
Answer: Its value is 11.48 ± 1.12 (p < 0.0001) pg/ml.

Question: What about the Serum adiponectin ([1]; HFD-ND) of the same molecule?
Answer: The Serum adiponectin was 9108 ± 550 (p < 0.0001) ng/ml.

Question: And the Serum cholesterol ([1]; HFD-ND)?
Answer: Its Serum cholesterol is 88.64 ± 5.17 (p < 0.0001) mg/dl.

Question: And the “Serum free fatty acids” value ([1]; HFD-ND)?
Answer: The value was 1.66 ± 0.08 (p < 0.0001) mM/l.

Question: And the Serum insulin ([1]; HFD-ND)?
Answer: The Serum insulin was 0.2570 ± 0.01 (p < 0.0001) μg/l.

Question: What about the Serum leptin ([1]; HFD-ND) of the same molecule?
Answer: The Serum leptin was 26.54 ± 1.60 (p < 0.0001) ng/ml.

Question: And the Serum resistin ([1]; HFD-ND)?
Answer: The Serum resistin was 1.19 ± 0.06 (p < 0.0001) ng/ml.

Question: And the “Survival of tumor-bearing mice” value [2]?
Answer: Its value is “did not influence”.

Question: And the “Tumor progression (tumor volume and weight)” value ([2]; DTIC 80 mg/kg i.p. 5 days, orlistat 10 mg/kg oral alternate days)?
Answer: The value was “unaltered”.

Question: And the “Differentiation of 3T3-L1 adipocytes” value [3]?
Answer: The value was “inhibited”.

Question: And the Blood glucose ([4]; mean)?
Answer: The Blood glucose was 161.83 mg/dL.

Question: What about the “Serum IL-6” value ([4]; mean) of the same molecule?
Answer: The value was 19.99 pg/mL.

Question: What about the “Serum LDLc” value ([4]; mean) of the same molecule?
Answer: The value was 51.26 mg/dL.

Question: And the “Serum TG” value ([4]; mean)?
Answer: The value was 54.93 mg/dL.

Question: What about the “Serum TNF-D” value ([4]; mean) of the same molecule?
Answer: Its value is 11.78 pg/mL.

Question: What about the Serum adiponectin ([4]; mean) of the same molecule?
Answer: Its Serum adiponectin is 13803 ng/mL.

Question: What about the Serum cholesterol ([4]; mean) of the same molecule?
Answer: Its Serum cholesterol is 81.36 mg/dL.

Question: What about the “Serum free fatty acids” value ([4]; mean) of the same molecule?
Answer: Its value is 0.89 mM/L.

Question: What about the Serum insulin ([4]; mean) of the same molecule?
Answer: Its Serum insulin is 0.116 µg/L.

Question: And the Serum leptin ([4]; mean)?
Answer: Its Serum leptin is 15.43 ng/mL.

Question: What about the Serum resistin ([4]; mean) of the same molecule?
Answer: The Serum resistin was 0.98 ng/mL.

Question: What about the Body weight ([4]; mean (SD on next line)) of the same molecule?
Answer: The Body weight was 21.50 g.

Question: What about the Tumor growth [5] of the same molecule?
Answer: The Tumor growth was “restricted tumor growth”.
